Data: patent US10441597B2, “Ciclesonide for the treatment of airway disease in horses” (Boehringer Ingelheim Vetmedica GmbH, priority 2012, dated 2019)
“Also recorded” adds a separate entry of the source. Values belong to the compound of their own block, whether it stands above or below them.

Legend:
RAO horses [1] = assay: Moldy hay challenge study in RAO horses: lung function variables (transpulmonary pressure, lung resistance, lung elastance); format: in vivo, horse; details: for Difference in lung function variables versus dexamethasone group: after 7 or 14 days; for Efficacy relative to dexamethasone measured in lung function variables and clinical score: moldy hay challenge model, RESPIMAT inhaler with Equine Inhaler device, examples 1 and 3
Description: (§1) The commercially available […]® is used in the study.

RAO horses [2] = assay: Moldy hay challenge study in RAO horses: clinical score (breathing effort score, weighted clinical score); format: in vivo, horse
Description: as §1

[3] = system: segmented neutrophils and lymphocytes; assay: Moldy hay challenge study in RAO horses: segmented neutrophil and lymphocyte counts; format: in vivo, horse; details: for Lymphocytes / Segmented neutrophils: nozzle B, n=7 mean
Experimental: as §1
The segmented neutrophil counts and the lymphocyte counts are determined in the studies above: ciclesonide treatment versus dexamethasone treatment.

IAD horse = assay: Impulse oscillometry lung function in one IAD horse (4th ciclesonide study); format: in vivo; details: 2700 μg ciclesonide twice daily for 14 days
Description: Ciclesonide is investigated in a baseline controlled, blinded study examining one (1) IAD horse. […] Lung function variables using the impulse oscillometry system (respiratory resistance (Rrs) and reactance (Xrs) are examined during the study.

cortisol levels = details: humans; after aerosol administration/inhalation; cited from earlier work
serum cortisol = assay: Moldy hay challenge study in RAO horses: serum cortisol; details: for Serum cortisol levels: any measured time point
[4] = Concentration of ciclesonide and metabolite in equine plasma (HPLC-MS/MS); details: for Ciclesonide concentration in equine plasma: 2nd ciclesonide study, n=8 mean
[5] = 1st ciclesonide study, ciclesonide 450/900/1800 μg/horse twice daily
[6] = 2nd ciclesonide study, ciclesonide 1687.5 B/2700 A/2700 B μg twice daily
[7] = 3rd ciclesonide study, ciclesonide groups
[8] = D 0, 2700 μg ciclesonide/horse twice daily inhaled 14 days, 3rd ciclesonide study
[9] = D 0, 3712.5 μg ciclesonide/horse once daily in the evening inhaled 14 days, 3rd ciclesonide study
[10] = D 0, 3712.5 μg ciclesonide/horse once daily in the morning inhaled 14 days, 3rd ciclesonide study
[11] = D 14, 2700 μg ciclesonide/horse twice daily inhaled 14 days, 3rd ciclesonide study
[12] = D 14, 3712.5 μg ciclesonide/horse once daily in the evening inhaled 14 days, 3rd ciclesonide study
[13] = D 14, 3712.5 μg ciclesonide/horse once daily in the morning inhaled 14 days, 3rd ciclesonide study
[14] = D 21, 2700 μg ciclesonide/horse twice daily inhaled 14 days, 3rd ciclesonide study
[15] = D 21, 3712.5 μg ciclesonide/horse once daily in the evening inhaled 14 days, 3rd ciclesonide study
[16] = D 21, 3712.5 μg ciclesonide/horse once daily in the morning inhaled 14 days, 3rd ciclesonide study
[17] = frequencies 0.2 to 2 Hz, in contrast to pretreatment values

- Counts of lymphocytes after administration [3, 5]: no change
- Counts of segmented neutrophils after administration [3, 5]: no or minor increase
- Counts of lymphocytes after administration [3, 6]: no change
- Counts of segmented neutrophils after administration [3, 6]: no or minor increase
- Counts of lymphocytes after administration [3, 7]: no change
- Counts of segmented neutrophils after administration [3, 7]: no or minor increase
- Lymphocytes [3, 8]: 2.55e+09 L⁻¹
- Segmented neutrophils [3, 8]: 3.97e+09 L⁻¹
- Lymphocytes [3, 9]: 2.55e+09 L⁻¹
- Segmented neutrophils [3, 9]: 3.73e+09 L⁻¹
- Lymphocytes [3, 10]: 2.21e+09 L⁻¹
- Segmented neutrophils [3, 10]: 4.37e+09 L⁻¹
- Lymphocytes [3, 11]: 2.54e+09 L⁻¹
- Segmented neutrophils [3, 11]: 4.57e+09 L⁻¹
- Lymphocytes [3, 12]: 2.43e+09 L⁻¹
- Segmented neutrophils [3, 12]: 4.37e+09 L⁻¹
- Lymphocytes [3, 13]: 2.48e+09 L⁻¹
- Segmented neutrophils [3, 13]: 4.45e+09 L⁻¹
- Lymphocytes [3, 14]: 2.49e+09 L⁻¹
- Segmented neutrophils [3, 14]: 3.47e+09 L⁻¹
- Lymphocytes [3, 15]: 2.48e+09 L⁻¹
- Segmented neutrophils [3, 15]: 3.41e+09 L⁻¹
- Lymphocytes [3, 16]: 2.66e+09 L⁻¹
- Segmented neutrophils [3, 16]: 3.75e+09 L⁻¹
- Serum cortisol levels (serum cortisol; 1st ciclesonide study, any ciclesonide group (450/900/1800 μg/horse twice daily)): no significant reduction
- Serum cortisol levels (serum cortisol; 2nd ciclesonide study, any ciclesonide group (1687.5 B/2700 A/2700 B μg twice daily)): no significant reduction
- Serum cortisol levels (serum cortisol; 3rd ciclesonide study, any ciclesonide group (2700 μg twice daily/3712.5 μg morning/3712.5 μg evening)): no significant reduction
- Cortisol level compared to values prior to treatment (serum cortisol; after administration of the highest ciclesonide dose, example 3): does not change significantly
- Serum cortisol level of horses (serum cortisol; ciclesonide, treatment for two weeks with different dose levels, Examples 2-3): no decrease
- Ciclesonide concentration in equine plasma ([4]; day 1, 0 min, ciclesonide 2700 μg nozzle B twice daily inhaled): <0.500 nmol/L
- Ciclesonide concentration in equine plasma ([4]; day 1, 1 h, ciclesonide 2700 μg nozzle B twice daily inhaled): <0.500 nmol/L
- Ciclesonide concentration in equine plasma ([4]; day 1, 2 h, ciclesonide 1687.5 μg nozzle B twice daily inhaled): <0.500 nmol/L
- Ciclesonide concentration in equine plasma ([4]; day 1, 2 h, ciclesonide 2700 μg nozzle B twice daily inhaled): <0.500 nmol/L
- Ciclesonide concentration in equine plasma ([4]; day 1, 4 h, ciclesonide 1687.5 μg nozzle B twice daily inhaled): <0.500 nmol/L
- Ciclesonide concentration in equine plasma ([4]; day 1, 4 h, ciclesonide 2700 μg nozzle B twice daily inhaled): <0.500 nmol/L
- Ciclesonide concentration in equine plasma ([4]; day 11, 0 min, ciclesonide 2700 μg nozzle A twice daily inhaled): <0.500 nmol/L
- Ciclesonide concentration in equine plasma ([4]; day 11, 0 min, ciclesonide 2700 μg nozzle B twice daily inhaled): <0.500 nmol/L
- Ciclesonide concentration in equine plasma ([4]; day 11, 1 h, ciclesonide 2700 μg nozzle A twice daily inhaled): <0.500 nmol/L
- Ciclesonide concentration in equine plasma ([4]; day 11, 1 h, ciclesonide 2700 μg nozzle B twice daily inhaled): <0.500 nmol/L
- Ciclesonide concentration in equine plasma ([4]; day 11, 2 h, ciclesonide 2700 μg nozzle A twice daily inhaled): <0.500 nmol/L
- Ciclesonide concentration in equine plasma ([4]; day 11, 2 h, ciclesonide 2700 μg nozzle B twice daily inhaled): <0.500 nmol/L
- Ciclesonide concentration in equine plasma ([4]; day 11, 4 h, ciclesonide 2700 μg nozzle A twice daily inhaled): <0.500 nmol/L
- Ciclesonide concentration in equine plasma ([4]; day 11, 4 h, ciclesonide 2700 μg nozzle B twice daily inhaled): <0.500 nmol/L
- Conversion of ciclesonide into the effective molecule C21-C21-desisobutyrylciclesonide ([4]; in horses, example 5): can be converted
SMILES: CC(C)C(=O)OCC(=O)[C@@]12O[C@H](C3CCCCC3)O[C@@H]1C[C@H]1[C@@H]3CCC4=CC(=O)C=C[C@]4(C)[C@H]3[C@@H](O)C[C@@]12C [ciclesonide, (11β,16α)-16,17-[[(R)-Cyclohexylmethylene]bis(oxy)]-11-hydroxy-21-(2-methyl-1-oxopropoxy)pregna-1,4-diene-3,20-dione]
- ΔPL and EL compared to pretreatment values (RAO horses [1]; 1st ciclesonide study, ciclesonide 1800 μg/horse twice daily inhaled (only the highest dose), after 14 days, p=0.0005 and p=0.0004): statistically significant reduction
- Difference in ΔPL and EL versus dexamethasone group (RAO horses [1]; 1st ciclesonide study, ciclesonide 1800 μg/horse twice daily, after 14 days): no significant difference
- All lung function variables compared to pretreatment values (RAO horses [1]; 2nd ciclesonide study, all ciclesonide groups (1687.5 μg nozzle B/2700 μg nozzle A/2700 μg nozzle B twice daily), after 14 days, p=0.0009 to p<0.0001): significantly reduced
- Difference in lung function variables versus dexamethasone group (RAO horses [1]; 2nd ciclesonide study, all ciclesonide groups): no significant difference
- Difference in lung function variables (ΔPL, RL) versus placebo group (RAO horses [1]; 3rd ciclesonide study, all ciclesonide groups, after 14 days, p<0.0001 (2700 μg, 3712.5 μg evening), p=0.0005 ΔPL / p=0.0003 RL (3712.5 μg morning)): significant difference
- Change in ΔPL compared to pretreatment values (RAO horses [1]; 3rd ciclesonide study, ciclesonide 2700 μg twice daily, after 7 days, p<0.0001): significantly reduced
- ΔPL and RL compared to pretreatment values (RAO horses [1]; 3rd ciclesonide study, ciclesonide 2700 μg twice daily, after 14 days, p<0.0001): significantly reduced
- Reduction of ΔPL and RL compared to pretreatment values (RAO horses [1]; 3rd ciclesonide study, ciclesonide 2700 μg, after 7 days, p<0.0001): statistically significant
- Reduction of RL compared to pretreatment values (RAO horses [1]; 3rd ciclesonide study, ciclesonide 2700 μg, after 7 days, p=0.0002): statistically significant
- Change in ΔPL compared to pretreatment values (RAO horses [1]; 3rd ciclesonide study, ciclesonide 3712.5 μg once daily in the evening, after 7 days, p=0.001): significantly reduced
- RL compared to pretreatment values (RAO horses [1]; 3rd ciclesonide study, ciclesonide 3712.5n (once daily in the evening), after 14 days, p=0.0001): significantly reduced
- Lung function variables compared to pretreatment values and to placebo group (RAO horses [1]; 3rd ciclesonide study, ciclesonide treatment groups, after 14 days): significantly reduced
- Efficacy relative to dexamethasone measured in lung function variables and clinical score (RAO horses [1]): comparable efficacy
- Breathing effort score (RAO horses [2]; 1st ciclesonide study, ciclesonide 450/900/1800 μg/horse twice daily, any measured time point): no significant changes
- Weighted clinical score compared to pretreatment values (RAO horses [2]; 2nd ciclesonide study, all three ciclesonide groups, after 14 days, p=0.0001 to p<0.0001): significantly reduced
- Difference in weighted clinical score versus dexamethasone group (RAO horses [2]; 2nd ciclesonide study, ciclesonide treatment groups, after 14 days): no significant difference
- Weighted clinical score compared to pretreatment values (RAO horses [2]; 3rd ciclesonide study, ciclesonide 2700 μg twice daily, after 7 and 14 days, p=0.0001 (7 days), p=0.0003 (14 days)): significantly reduced
- Difference in weighted clinical score versus placebo group (RAO horses [2]; 3rd ciclesonide study, ciclesonide treatment groups, after 14 days, p=0.0002 (2700 μg, 3712.5 μg evening), p=0.0006 (3712.5 μg morning)): significant difference
- Alteration in the immune system measured by neutrophilia and lymphopenia ([3]; ciclesonide, treatment for two weeks with different dose levels, 1st and 2nd ciclesonide studies (Table 2)): no alteration; also recorded: not observed
- Mean respiratory reactance in inspiration versus expiration (IAD horse; [17]): not different
- Mean respiratory resistance in inspiration versus expiration (IAD horse; [17]): not different
- Mean respiratory resistance (Rrs) compared to pretreatment values (IAD horse; frequencies 0.2 to 20 Hz, mean of three measurements): decreased
- Mean respiratory reactance (Xrs) compared to pretreatment values (IAD horse; frequencies 5 to 10 Hz, mean of three measurements): decreased
- Measured cortisol levels (cortisol levels): no or clinically not relevant cortisol suppression

SMILES: CCCC1O[C@@H]2C[C@H]3[C@@H]4CCC5=CC(=O)C=C[C@]5(C)[C@H]4[C@@H](O)C[C@]3(C)[C@]2(C(=O)CO)O1 (stereo partly shown) [budesonide]
- All lung function variables compared to pretreatment values (RAO horses [1]; Budesonide study, budesonide 1800 μg/horse ex RESPIMAT twice daily inhaled, after 14 days, p≤0.0001): significantly reduced
- Difference in lung function variables versus dexamethasone group (RAO horses [1]; Budesonide study, budesonide 1800 μg/horse twice daily): no significant difference
- Efficacy relative to dexamethasone measured in lung function variables and clinical score (RAO horses [1]): comparable efficacy
- Clinical score compared to pretreatment values (RAO horses [2]; Budesonide study, all three budesonide groups (450/900/1800 μg/horse twice daily), after 7 and 14 days, p=0.002 to p<0.0001): significantly reduced
- Difference in clinical score versus dexamethasone group (RAO horses [2]; Budesonide study, budesonide 900 and 1800 μg/horse twice daily, after 7 and 14 days): no significant difference
